Assay results from patent publication US20240124439A1, “Pyrido[2,3-D]Imidazole Derivatives and Their Use As Inhibitors of ITK for the Treatment of Skin Disease” (Pfizer Inc., priority 2020, published 2024).

What was measured:
[1] = system: activated CD4+ human T-cells (IL-2); test: IL-2 inhibition in supernatants from activated CD4+ human T-cells (cisbio HTRF); format: cell-based; details: T-cell; CD3/CD28-activated CD4+ human T cells, ImmunoCult stimulation 20 to 24 hrs; geometric mean of count n
Procedure: IL-2 inhibition activity in supernatants from activated CD4+ human T-cells was determined by measuring the effect of a test compound on the activity using the cisbio HTRF™ technology.
Human CD4+ T cells were activated with CD3/CD28 for 3 days and expanded for an additional 4-6 days (7 to 9 days total). On day 0, frozen CD4+ T cells were thawed, treated with CD3/CD28 Dynabeads, and incubated at 37° C./5% CO2. On day 3, the beads were removed, and the cells were diluted to 5×10^5 cells/cm^2, placed in G-Rex10 flask, and incubated at 37° C./5% CO2. On day 7 to day 9 the cells were removed from the G-Rex flasks, counted and diluted back to 1×10^6 cells/ml in standard tissue culture flask.
The expanded CD4+ T-cells were centrifuged at 300×g for 10 minutes and resuspended to 0.5 million cells per ml (30,000 cells/well). 60 μl of CD4+ T cells were added per well to a 384 well plate containing 0.1 μL of varying concentrations of test compound in DMSO. The plates were incubated for 15 min at 37° C./5% CO2. 20 μl of diluted ImmunoCult™ (STEMCELL Technologies, 1:12.5 in T cell assay media) were added to all wells of the plate (1:50 final assay concentration). The plates were incubated for an additional 20 to 24 hrs at 37° C./5% CO2. The plates were centrifuged at 300×g for 10 minutes. 16 μL of supernatant was removed and combined with 4 μl of IL-2 HTRF Abs. (cisbio kit). Plates were incubated for 3 hours at RT and read with an EnVision plate reader at 665 nm and 615 nm wavelengths. The concentrations and resulting effect values for the tested compound were plotted and the concentration of compound required for 50% effect (IC50) was determined with the four-parameter logistic dose response equation.

[2] = biological target: IL-2-Inducible T-Cell Kinase (ITK) (Homo sapiens (Human), UniProt Q08881); test: ITK enzyme assay (IL-2-inducible T-cell kinase activity); format: biochemical; details: geometric mean of count n
Procedure: ITK activity was determined by measuring the effect of a test compound in an ITK enzyme assay.
1.0 M HEPES Buffer pH 7.5 solution was prepared as follows: 238.3 g HEPES free acid (Sigma) and 800 mL of water were combined, and the mixture was stirred until complete dissolution. The pH was adjusted to 7.5 via titration with 5N NaOH and the volume adjusted to 1000 mL. The solution was filtered and sterilized.
ITK assay buffer was prepared as follows: 50 mL of HPLC-grade water was treated with 2 mL of 1.0 M HEPES Buffer, 500 μL of 2% Gelatin (Sigma), 1.0 mL of aqueous MgCl2 solution (1.0 M), and 1.0 mL of aqueous glutathione solution (0.5 M), and the solution was mixed. The solution was brought to 99 mL in a graduated cylinder by addition of water and sterilized through a 0.2 μm filter. 0.1 mL of Brij-35™ Surfact-Amps™ Detergent Solution (10% w/v aqueous solution, ThermoFisher) and 1.0 mL of ATP (Teknova,100 mM) were added and the solution was mixed.
Preparation of 1.33× ITK enzyme solution was as follows: 49.99 mL of ITK assay buffer was treated with 4.1 μL of ITK enzyme (ITK FL (N-Flag and C-His tagged, […]) Lake Pharma, 0.25 mg/ml in a buffer containing 25 mM Tris pH 7.8, 150 mM NaCl, 10% glycerol and 2 mM TCEP) and the mixture was gently agitated. The resulting solution was stored on ice. 30 Minutes prior to use, the enzyme solution was removed from ice and equilibrated to RT by incubation in a RT water bath.
Preparation of 4× ITK substrate solution was as follows: 50 mL of ITK assay buffer was treated with 100 μL of BTK peptide (China Peptide Company, 2 mM stock solution in DMSO). The tube was capped, mixed by gently inverting the tube, and then stored on ice. 30 Minutes prior to use, the substrate solution was removed from ice and equilibrated to RT by incubation in a RT water bath.
At the time of assay, 7.5 μL of the 1.33× ITK enzyme solution was added to plate wells containing 0.1 μL of varying concentrations of test compound in DMSO. The plate was incubated 30 min at RT. The plate wells were each treated with 2.5 uL of the 4× ITK substrate solution and the plate was sealed (TopSeal™, Perkin Elmer). The plate was spun at 1000 rpm for 30 sec and then incubated for 60 min at RT. The seal was removed, and each well was treated with 10 μL of Stop/Detect Buffer (20 mM HEPES pH 7.5, 0.01% gelatin, 1 nM LANCE PT66 (Perkin Elmer), 16.5 μg/ml Surelight APC (Perkin Elmer), 10 mM EDTA, 250 mM NaCl). The plate was again covered and was spun at 1000 rpm for […]. The plate was allowed to incubate overnight at RT and in a closed carrier to reduce dehydration. The seal was removed, and the fluorescence was read with a plate reader with an excitation wavelength of […]. The concentrations and resulting effect values for the tested compound were plotted and the concentration of compound required for 50% effect (IC50) was determined with the four-parameter logistic dose response equation.

Chain of IL-2-Inducible T-Cell Kinase (ITK) (Q08881 whole entry): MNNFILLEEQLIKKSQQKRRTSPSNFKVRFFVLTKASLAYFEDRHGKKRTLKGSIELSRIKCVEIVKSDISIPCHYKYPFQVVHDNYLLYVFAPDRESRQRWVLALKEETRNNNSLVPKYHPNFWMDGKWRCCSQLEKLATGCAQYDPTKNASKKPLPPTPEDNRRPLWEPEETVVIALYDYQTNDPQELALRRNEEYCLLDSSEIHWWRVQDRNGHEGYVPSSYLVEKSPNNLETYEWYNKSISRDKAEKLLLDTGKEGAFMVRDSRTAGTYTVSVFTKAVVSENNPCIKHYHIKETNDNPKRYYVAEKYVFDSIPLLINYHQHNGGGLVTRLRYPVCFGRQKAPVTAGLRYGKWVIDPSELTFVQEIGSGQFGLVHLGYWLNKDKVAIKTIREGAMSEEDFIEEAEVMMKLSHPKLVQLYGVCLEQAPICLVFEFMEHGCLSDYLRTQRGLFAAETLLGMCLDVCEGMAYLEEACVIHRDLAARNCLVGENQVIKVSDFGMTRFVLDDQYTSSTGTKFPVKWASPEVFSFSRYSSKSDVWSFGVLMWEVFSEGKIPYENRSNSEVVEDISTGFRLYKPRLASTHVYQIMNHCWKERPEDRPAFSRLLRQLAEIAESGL

Row | IC50 [1] [nM] | IC50 [2] [nM] | Structure (SMILES)
1 | 732 | 123 | CN(C(=O)C1CCC1)c1cnc2[nH]c(-c3n[nH]c4c3CCC(C)(C)C4)nc2c1 [Example 105, N-(2-(6,6-Dimethyl-4,5,6,7-tetrahydro-1H-indazol-3-yl)-3H-imidazo[4,5-b]pyridin-6-yl)-N-methylcyclobutanecarboxamide]
2 | 415 | 142 | C[C@H](C(=O)N(C)c1cnc2[nH]c(-c3n[nH]c4c3C[C@@H]3C[C@]3(C)C4)nc2c1)N1C[C@H]2CC[C@@H]1CO2 [Example 115]
3 | 246 | 26 | CC[C@@H](C)C(=O)N(C)c1cnc2nc(-c3n[nH]c4c3C[C@@H]3C[C@]3(C)C4)[nH]c2c1 [Example 87, (R)-N,2-Dimethyl-N-(2-((4aS,5aR)-5a-methyl-1,4,4a,5,5a,6-hexahydrocyclopropa[f]indazol-3-yl)-1H-imidazo[4,5-b]pyridin-6-yl)butanamide]
4 | 552 | 35 | CC(C)C(=O)N(C)CC(=O)N(C)c1cnc2nc(-c3n[nH]c4c3C[C@@H]3C[C@]3(C)C4)[nH]c2c1 [Example 78, N-Methyl-N-(2-(methyl(2-((4aS,5aR)-5a-methyl-1,4,4a,5,5a,6-hexahydrocyclopropa[f]indazol-3-yl)-1H-imidazo[4,5-b]pyridin-6-yl)amino)-2-oxoethyl)isobutyramide]
5 | – | 416 | CN(C(=O)C12CC(C1)C2)c1cnc2[nH]c(-c3n[nH]c4c3CCC(C)(C)C4)nc2c1 [Example 111, N-(2-(6,6-Dimethyl-4,5,6,7-tetrahydro-1H-indazol-3-yl)-3H-imidazo[4,5-b]pyridin-6-yl)-N-methylbicyclo[1.1.1]pentane-1-carboxamide]
6 | 2110 | – | CC(C)(C(=O)Nc1cnc2[nH]c(-c3n[nH]c4c3C[C@@H]3C[C@]3(C)C4)nc2c1)N1CCOCC1 [Example 16, 2-Methyl-N-(2-((4aS,5aR)-5a-methyl-1,4,4a,5,5a,6-hexahydrocyclopropa[f]indazol-3-yl)-3H-imidazo[4,5-b]pyridin-6-yl)-2-morpholinopropanamide]
7 | – | 333 | CN(C(=O)C(C)(C)C1CCOCC1)c1cnc2[nH]c(-c3n[nH]c4c3CCC(C)(C)C4)nc2c1 [Example 93, N-(2-(6,6-Dimethyl-4,5,6,7-tetrahydro-1H-indazol-3-yl)-3H-imidazo[4,5-b]pyridin-6-yl)-N,2-dimethyl-2-(tetrahydro-2H-pyran-4-yl)propanamide]
8 | 815 | – | CCc1nc2[nH]c(-c3n[nH]c4c3C[C@@H]3C[C@]3(C)C4)nc2cc1N(C)C(=O)CN1CCOCC1 [Example 37, N-(5-Ethyl-2-((4aS,5aR)-5a-methyl-1,4,4a,5,5a,6-hexahydrocyclopropa[f]indazol-3-yl)-3H-imidazo[4,5-b]pyridin-6-yl)-N-methyl-2-morpholinoacetamide]
9 | 131 | – | CN(C(=O)CC1CC2(C1)CC(F)(F)C2)c1cnc2nc(-c3n[nH]c4c3C[C@@H]3C[C@]3(C)C4)[nH]c2c1 [Example 54, 2-(6,6-Difluorospiro[3.3]heptan-2-yl)-N-methyl-N-(2-((4aS,5aR)-5a-methyl-1,4,4a,5,5a,6-hexahydrocyclopropa[f]indazol-3-yl)-1H-imidazo[4,5-b]pyridin-6-yl)acetamide]
10 | – | 62 | CC(C(=O)N(C)c1cnc2[nH]c(-c3n[nH]c4c3C[C@@H]3C[C@]3(C)C4)nc2c1)N1CCOCC1 (stereo partly drawn) [Example 27, N-Methyl-N-(2-((4aS,5aR)-5a-methyl-1,4,4a,5,5a,6-hexahydrocyclopropa[f]indazol-3-yl)-3H-imidazo[4,5-b]pyridin-6-yl)-2-morpholinopropanamide]
11 | 157 | – | CN(C(=O)CC1CC2(CCC2)C1)c1cnc2nc(-c3n[nH]c4c3C[C@@H]3C[C@]3(C)C4)[nH]c2c1 [Example 49, N-Methyl-N-(2-((4aS,5aR)-5a-methyl-1,4,4a,5,5a,6-hexahydrocyclopropa[f]indazol-3-yl)-1H-imidazo[4,5-b]pyridin-6-yl)-2-(spiro[3.3]heptan-2-yl)acetamide]

More lines, now with the values behind:

Row | Structure (SMILES) | IC50 [1] [nM] | IC50 [2] [nM]
12 | CN(C(=O)C1CC(C)(C)C1)c1cnc2[nH]c(-c3n[nH]c4c3CCC(C)(C)C4)nc2c1 [Example 96, N-(2-(6,6-Dimethyl-4,5,6,7-tetrahydro-1H-indazol-3-yl)-3H-imidazo[4,5-b]pyridin-6-yl)-N,3,3-trimethylcyclobutane-1-carboxamide] | – | 311
13 | CN(C(=O)CC1CCC1)c1cnc2nc(-c3n[nH]c4c3C[C@@H]3C[C@]3(C)C4)[nH]c2c1 [Example 77, 2-Cyclobutyl-N-methyl-N-(2-((4aS,5aR)-5a-methyl-1,4,4a,5,5a,6-hexahydrocyclopropa[f]indazol-3-yl)-1H-imidazo[4,5-b]pyridin-6-yl)acetamide] | 247 | 27
14 | CN(C(=O)C1(C)CCC(F)(F)CC1)c1cnc2nc(-c3n[nH]c4c3C[C@@H]3C[C@]3(C)C4)[nH]c2c1 [Example 62, 4,4-Difluoro-N,1-dimethyl-N-(2-((4aS,5aR)-5a-methyl-1,4,4a,5,5a,6-hexahydrocyclopropa[f]indazol-3-yl)-1H-imidazo[4,5-b]pyridin-6-yl)cyclohexane-1-carboxamide] | 402 | 141
15 | CCC(CC)C(=O)N(C)c1cnc2nc(-c3n[nH]c4c3C[C@@H]3C[C@]3(C)C4)[nH]c2c1 [Example 82, 2-Ethyl-N-methyl-N-(2-((4aS,5aR)-5a-methyl-1,4,4a,5,5a,6-hexahydrocyclopropa[f]indazol-3-yl)-1H-imidazo[4,5-b]pyridin-6-yl)butanamide] | 176 | 20
16 | CN(C(=O)CC1CC(F)(F)C1)c1cnc2nc(-c3n[nH]c4c3C[C@@H]3C[C@]3(C)C4)[nH]c2c1 [Example 48, 2-(3,3-Difluorocyclobutyl)-N-methyl-N-(2-((4aS,5aR)-5a-methyl-1,4,4a,5,5a,6-hexahydrocyclopropa[f]indazol-3-yl)-1H-imidazo[4,5-b]pyridin-6-yl)acetamide] | 326 | –
17 | CN(C(=O)CC1CC2(C1)CC2(F)F)c1cnc2nc(-c3n[nH]c4c3C[C@@H]3C[C@]3(C)C4)[nH]c2c1 (stereo partly drawn) [Example 50, 2-(1,1-Difluorospiro[2.3]hexan-5-yl)-N-methyl-N-(2-((4aS,5aR)-5a-methyl-1,4,4a,5,5a,6-hexahydrocyclopropa[f]indazol-3-yl)-1H-imidazo[4,5-b]pyridin-6-yl)acetamide] | 171 | –
18 | C[C@@H](C(=O)Nc1ccc2[nH]c(-c3n[nH]c4c3CCC(C)(C)C4)nc2c1)N1CCOCC1 [Example 33, (S)-N-(2-(6,6-Dimethyl-4,5,6,7-tetrahydro-1H-indazol-3-yl)-1H-benzo[d]imidazol-5-yl)-2-morpholinopropanamide] | 315 | –
